Columns and labels:
primary human T-cells = assay: Proliferation assay (5 days, CellTiter-Glo, CD3-stimulated T-cells); type: cell-based; conditions: for Emax proliferation (% activation): CD3 condition, normalised to DMSO (neutral) and 20 μM reference compound A1 = 100%; for EC50: Homo sapiens, T-cell, 120 h, CD3-stimulated primary human T-cells, 5 days, CellTiter-Glo, fitted sigmoidal curve, read-out: Tcell Proliferation CD3 EC50
Protocol: As readouts for T-cell activation, 1L2 secretion after 24 hours and proliferation after 5 days was measured. Increases in IL2 secretion and proliferation upon compound treatment were assessed as the % of the maximum of reference compound A1. WO 2016/139181 discloses reference compound A1 as example 70. As a counter screen and to make sure that no unwanted TCR-independent activation was triggered, PBS conditions were run for all compounds.
Expanded primary human T-cells are thawed and cultured in RPMI 1640 (Gibco, #61870-010)+5% human serum (HS, Sigma, #H3667)+1 mM Sodium Pyruvate (Gibco, #11360-039)+50 μM 2-mercaptoethanol (Gibco, #31350-010) and 1× Pen-Strep (Life Technologies, #15140122) medium at density of 2 Mio/ml for 3 hours in 5% CO2, 37° C. and 95% humidity. For coating of plates, PBS++ only or PBS++ with CD3 antibody (concentration depending on donor and determined by CD3 titrations) is added 100 μl/well to Poly-D Lysine coated 96-well plates. Plates are sealed and incubated at room temperature for 3 hours on a table-top rocking platform. After incubation, plates are washed once with PBS−− and filled with 40 μl/well culture medium only. Compounds are then added (see next section) to medium only plates. After 3 hours of culturing the T-cells, cells are filtered through a cell strainer (Miltenyi Biotech, #130-041-407), counted again and concentration is adjusted to 1.25 Mio/ml.
Cells are then seeded 80 μl/well to the 40 μl/well including dispensed compounds according to plate layout. By adding cells, compounds are further diluted 1:3, and resulting in 100 k cells/120 μl/well. After 48 hours 40 μl of supernatant is collected carefully from the top while not disturbing the cells. Cells are assessed for proliferation 5 days later by measuring […] using CellTiterGlo (Promega).
Compounds were added in a 5 or 6 pt dose response with the Tecan D300e Digital Dispenser, all conditions 3 times more concentrated than the end-concentration, since cells are added afterwards (80 μl cells to 40 μl prepared medium with treatment). The DR was starting at 20 μM or 10 μM final top concentration and a dilution factor of 3.333. The positive control was the reference compound A1 that was added in a dose response as well, additionally to 3 wells of only 20 μM representing the positive stimulator control. All wells were normalized with DMSO to a final concentration of 0.6% (0.2% end-concentration).
After 5 days, for detection of ATP which is directly proportional to the number of cells present per well, the CellTiter-Glo® 2.0 Reagent is used. After visual control for toxicity or precipitations of the tested compounds, the plates are equilibrated to room temperature for 45 minutes. CellTiter-Glo® 2.0 Reagent is equilibrated to room temperature as well. After equilibration, an equal amount of CellTiter-Glo reagent is added to the cells (80 μl/well) with an electronic multichannel pipette. Plates are placed on a rocking platform for 15 minutes at room temperature. After incubation, the bottom of the plates is sealed with backing tape. Luminescence is measured with PHERAstar FSX (interval time 0.5 sec, gain 3000, focal height 15 mm) and exported as CSV file for analysis in Genedata screener.
CD3 and PBS plates were analysed separately in Genedata Screener using Roche Normalization PCT_POS_CTRL with DMSO set as Neutral Control and 20 μM of the reference compound A1 set as Stimulator Control/100%.
For CD3 conditions EC50 and Emax of the fitted sigmoidal curve were reported. If no curve could be fitted, the EC50 was reported as blank field and the Emax was based on individual data points. […] Compounds which activate unstimulated cells (see IL2 measurements) or compounds which negatively affected viability were flagged.

[1] = biological target: T1, DGKζ (hDGKzeta(1-928)-N-His) (Homo sapiens, UniProt Q13574); assay: In vitro DGK inhibition assay, DGKzeta ADP Glo (in house); type: biochemical; conditions: 2 nM DGKζ, 50 μM ATP, 125 uM DLG in liposomes, 1 hour reaction
T1 construct: hDGKzeta(1-928)-N-His; His (N); made in house; host or cells: Sf21 insect cells (baculovirus)
T1 sequence (Q13574 whole entry): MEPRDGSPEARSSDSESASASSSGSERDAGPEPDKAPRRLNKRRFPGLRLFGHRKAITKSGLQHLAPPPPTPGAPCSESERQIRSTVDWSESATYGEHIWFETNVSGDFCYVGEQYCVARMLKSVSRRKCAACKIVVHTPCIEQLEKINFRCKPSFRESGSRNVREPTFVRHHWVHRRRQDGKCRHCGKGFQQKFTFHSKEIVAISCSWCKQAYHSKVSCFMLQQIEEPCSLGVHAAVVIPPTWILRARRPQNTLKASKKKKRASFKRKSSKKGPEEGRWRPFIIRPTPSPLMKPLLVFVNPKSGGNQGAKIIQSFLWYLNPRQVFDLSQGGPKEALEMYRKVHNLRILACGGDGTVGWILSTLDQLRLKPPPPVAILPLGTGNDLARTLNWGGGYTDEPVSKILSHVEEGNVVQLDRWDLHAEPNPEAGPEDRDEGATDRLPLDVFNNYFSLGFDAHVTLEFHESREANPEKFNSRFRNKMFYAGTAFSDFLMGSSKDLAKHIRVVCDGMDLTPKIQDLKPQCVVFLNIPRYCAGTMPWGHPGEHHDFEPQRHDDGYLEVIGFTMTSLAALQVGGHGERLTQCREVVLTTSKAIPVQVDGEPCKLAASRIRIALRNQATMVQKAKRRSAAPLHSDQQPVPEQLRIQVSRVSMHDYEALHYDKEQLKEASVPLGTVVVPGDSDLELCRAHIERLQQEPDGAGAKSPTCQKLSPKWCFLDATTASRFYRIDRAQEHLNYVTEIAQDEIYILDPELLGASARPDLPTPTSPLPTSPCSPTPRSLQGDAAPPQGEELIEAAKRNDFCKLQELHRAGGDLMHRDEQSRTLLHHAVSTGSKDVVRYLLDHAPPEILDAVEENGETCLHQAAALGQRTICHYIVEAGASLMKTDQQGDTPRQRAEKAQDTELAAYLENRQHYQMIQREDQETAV
Protocol: (§1) DGKα and ζ kinases use ATP to phosphorylate the substrate 1,2-dilauroyl-sn-glycerol (DLG, incorporated in the liposomes). ATP is converted to ADP as a result of this enzymatic reaction. After the kinase reaction, an ATP-depletion reagent is added to terminate the kinase reaction and deplete any remaining ATP, leaving only ADP. Second, a detection reagent is added to simultaneously convert ADP to ATP and allow the newly synthesized ATP to be converted to light using a coupled luciferase/luciferin reaction.
(§2) Full length DGKα and ζ were expressed in Sf21 insect cells by infecting the cells with the baculovirus stock at MOI of 2. Purification of both enzymes was performed as previously described by Takahashi et al., PeerJ, 2018 (Takahashi, D.; Sakane, F. Expression and purification of human diacylglycerol 5 kinase alpha from baculovirus-infected insect cells for structural studies. PeerJ2018, 6, No. e5449).
(§3) A concentrated liposome solution was prepared in assay buffer without DTT and BSA: 2 mM of DLG in 21 mM of total liposome (2 mM DLG/8 mM PS/11 mM PC). The reaction mixtures contain the assay buffer with a final DLG concentration of 125 uM ATP concentrations of 25 μM (for DGKA assay) or 50 μM (for DGKZ assay). The reactions were started by addition of DGK α and ζ kinases at 4 nM and 2 nM final concentrations, respectively. After 1 hour reaction, the amount of ADP formed was detected with the ADP-Glo kinase assay (Promega) according to the manufacturer instructions. Compounds were added in 11-points dose response, starting at […], 1:3 dilutions, with a final DMSO concentration of 2%. The multidrop combi was used as a liquid handler and luminescence was read with 0.5 s by the envision reader (PE).

[2] = biological target: T2, DGKα (hDGKalpha(1-735)-N-His) (Homo sapiens, UniProt P23743); assay: In vitro DGK inhibition assay, DGKalpha ADP Glo (in house); type: biochemical; conditions: 4 nM DGKα, 25 μM ATP, 125 uM DLG in liposomes, 1 hour reaction
T2 construct: hDGKalpha(1-735)-N-His; His (N); made in house; host or cells: Sf21 insect cells (baculovirus)
T2 sequence (P23743 whole entry): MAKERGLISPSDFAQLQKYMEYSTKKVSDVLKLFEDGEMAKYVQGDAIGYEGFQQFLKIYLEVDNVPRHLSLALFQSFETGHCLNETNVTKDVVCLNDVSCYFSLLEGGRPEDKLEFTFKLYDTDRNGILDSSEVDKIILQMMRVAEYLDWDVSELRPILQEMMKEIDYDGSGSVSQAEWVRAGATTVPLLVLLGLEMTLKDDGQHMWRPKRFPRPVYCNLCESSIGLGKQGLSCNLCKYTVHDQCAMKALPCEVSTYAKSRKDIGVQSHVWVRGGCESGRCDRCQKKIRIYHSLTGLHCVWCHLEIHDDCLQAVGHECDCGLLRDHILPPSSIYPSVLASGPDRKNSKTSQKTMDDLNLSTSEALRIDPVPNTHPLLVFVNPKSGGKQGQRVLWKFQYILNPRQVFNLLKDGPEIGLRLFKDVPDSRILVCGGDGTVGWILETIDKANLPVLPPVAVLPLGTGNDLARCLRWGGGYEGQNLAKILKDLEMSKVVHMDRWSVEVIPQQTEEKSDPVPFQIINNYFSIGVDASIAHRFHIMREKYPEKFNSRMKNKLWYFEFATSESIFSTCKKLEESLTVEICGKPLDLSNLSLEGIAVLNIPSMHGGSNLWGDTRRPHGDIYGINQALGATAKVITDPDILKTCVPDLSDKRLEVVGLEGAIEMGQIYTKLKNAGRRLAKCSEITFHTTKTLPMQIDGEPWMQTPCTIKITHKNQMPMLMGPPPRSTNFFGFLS
Protocol: as §1, §2, §3

Compound | IC50 [1] [nM] | IC50 [2] [nM] | Emax proliferation (% activation) (primary human T-cells) | EC50 (primary human T-cells) [nM]
COC(F)(c1nnc(-c2ccc3c(c2)N(Cc2ccc(-c4ncn(C5CC5)n4)cc2)C(=O)[C@@H](N)CS3(=O)=O)o1)C(F)(F)F (stereo partly drawn) [Example 66, (3R)-3-amino-5-[[4-(1-cyclopropyl-1,2,4-triazol-3-yl)phenyl]methyl]-1,1-dioxo-7-[5-(1,2,2,2-tetrafluoro-1-methoxy-ethyl)-1,3,4-oxadiazol-2-yl]-2,3-dihydro-1λ^6,5-benzothiazepin-4-one] | 6610 | 14900 | 112 | 1290
CC(C)(C#N)c1nnc(-c2ccc3c(c2)N(Cc2ccc(-n4cc(C(F)(F)F)nn4)cc2)C(=O)[C@@H](N)CS3(=O)=O)o1 [Example 145, 2-[5-[(3R)-3-amino-1,1,4-trioxo-5-[[4-[4-(trifluoromethyl)triazo1-1-yl]phenyl]methyl]-2,3-dihydro-1λ^6,5-benzothiazepin-7-yl]-1,3,4-oxadiazol-2-yl]-2-methyl-propanenitrile] | 955 | 18000 | 86 | 4260
Cn1nc(OC(F)(F)F)cc1-c1ccc(CN2C(=O)[C@@H](N)CS(=O)(=O)c3ccc(-c4nnc(C(C)(C)C#N)o4)cc32)cc1 [Example 148, 2-[5-[(3R)-3-amino-5-[[4-[2-methyl-5-(trifluoromethoxy)pyrazol-3-yl]phenyl]methyl]-1,1,4-trioxo-2,3-dihydro-1λ^6,5-benzothiazepin-7-yl]-1,3,4-oxadiazol-2-yl]-2-methyl-propanenitrile] | 1050 | 737 | 186 | 182
CC(C)(C#N)Cc1nnc(-c2ccc3c(c2)N(Cc2ccc(-c4ccc(OC(F)(F)F)cn4)cc2)C(=O)[C@@H](N)CS3(=O)=O)o1 [Example 174, 3-[5-[(3R)-3-amino-1,1,4-trioxo-5-[[4-[5-(trifluoromethoxy)-2-pyridyl]phenyl]methyl]-2,3-dihydro-1λ^6,5-benzothiazepin-7-yl]-1,3,4-oxadiazol-2-yl]-2,2-dimethyl-propanenitrile] | 1140 | 9300 | 124 | 543
CCC(C#N)(CC)c1nnc(-c2ccc3c(c2)N(Cc2ccc(-c4ccc(OC(F)(F)F)cn4)cc2)C(=O)[C@@H](N)CS3(=O)=O)o1 [Example 176, 2-[5-[(3R)-3-amino-1,1,4-trioxo-5-[[4-[5-(trifluoromethoxy)-2-pyridyl]phenyl]methyl]-2,3-dihydro-1λ^6,5-benzothiazepin-7-yl]-1,3,4-oxadiazol-2-yl]-2-ethyl-butanenitrile] | 1550 | 1530 | 140 | 85.7
N[C@H]1CS(=O)(=O)c2ccc(-c3nnc(C4(N)CCC(F)(F)CC4)o3)cc2N(Cc2ccc(-c3ccc(OC(F)(F)F)cn3)cc2)C1=O [Example 178, (3R)-3-amino-7-[5-(1-amino-4,4-difluoro-cyclohexyl)-1,3,4-oxadiazol-2-yl]-1,1-dioxo-5-[[4-[5-(trifluoromethoxy)-2-pyridyl]phenyl]methyl]-2,3-dihydro-1λ^6,5-benzothiazepin-4-one] | 1690 | 7100 | 96 | 133

Stronger by IC50 [1], values ahead:

IC50 [1] [nM] | IC50 [2] [nM] | Compound | Emax proliferation (% activation) (primary human T-cells) | EC50 (primary human T-cells) [nM]
786 | 1730 | CC(C)(C#N)c1nnc(-c2ccc3c(c2)N(Cc2ccc(-c4ccc(OCC(F)(F)F)cn4)cc2)C(=O)[C@@H](N)CS3(=O)=O)o1 [Example 135, 2-[5-[(3R)-3-amino-1,1,4-trioxo-5-[[4-[5-(2,2,2-trifluoroethoxy)-2-pyridyl]phenyl]methyl]-2,3-dihydro-1λ^6,5-benzothiazepin-7-yl]-1,3,4-oxadiazol-2-yl]-2-methyl-propanenitrile] | 149 | 257
660 | 11200 | CC(C)(C#N)c1nnc(-c2ccc3c(c2)N(Cc2ccc(-c4ccc(OC(F)(F)F)nc4)cc2)C(=O)[C@@H](N)CS3(=O)=O)o1 [Example 137, 2-[5-[(3R)-3-amino-1,1,4-trioxo-5-[[4-[6-(trifluoromethoxy)-3-pyridyl]phenyl]methyl]-2,3-dihydro-1λ^6,5-benzothiazepin-7-yl]-1,3,4-oxadiazol-2-yl]-2-methyl-propanenitrile] | 124 | 406
465 | 657 | CC(C)(C#N)c1nnc(-c2ccc3c(c2)N(Cc2ccc(-n4cc(OC(F)(F)F)cn4)cc2)C(=O)[C@@H](N)CS3(=O)=O)o1 [Example 138, 2-[5-[(3R)-3-amino-1,1,4-trioxo-5-[[4-[4-(trifluoromethoxy)pyrazol-1-yl]phenyl]methyl]-2,3-dihydro-1λ^6,5-benzothiazepin-7-yl]-1,3,4-oxadiazol-2-yl]-2-methyl-propanenitrile] | 158 | 83.2
860 | 15500 | Cc1cc(-c2ccc(CN3C(=O)[C@@H](N)CS(=O)(=O)c4ccc(-c5nnc(C(C)(C)C#N)o5)cc43)cc2)ncc1OC(F)(F)F [Example 144, 2-[5-[(3R)-3-amino-5-[[4-[4-methyl-5-(trifluoromethoxy)-2-pyridyl]phenyl]methyl]-1,1,4-trioxo-2,3-dihydro-1λ^6,5-benzothiazepin-7-yl]-1,3,4-oxadiazol-2-yl]-2-methyl-propanenitrile] | 87 | 291
416 | 2060 | N#CC1(c2nnc(-c3ccc4c(c3)N(Cc3ccc(-c5ccc(OC(F)(F)F)cn5)cc3)C(=O)[C@@H](N)CS4(=O)=O)o2)CCOCC1 [Example 173, 4-[5-[(3R)-3-amino-1,1,4-trioxo-5-[[4-[5-(trifluoromethoxy)-2-pyridyl]phenyl]methyl]-2,3-dihydro-1λ^6,5-benzothiazepin-7-yl]-1,3,4-oxadiazol-2-yl]tetrahydropyran-4-carbonitrile] | 101 | 235
